Reference: patent publication US12054486B2, “Pyridine derivatives and their use as sodium channel activators” (Xenon Pharmaceuticals Inc., priority 2021, dated 2024)
Where a name gives a salt, the structure may show the parent alone.

molecular target: sodium channel isoforms of interest stably expressed in Human Embryonic Kidney Cells (voltage-gated sodium channel, particularly NaV1.1) (Homo sapiens, UniProt P35498); experiment: automated planar patch clamp assay of sodium channel gating (area under the sodium current trace); assay type: cell-based; conditions: HEK cells, voltage step from −120 mV to 0 mV, increasing concentrations
Description: A typical assay described in Crestey, F. et al., ACS Chem Neurosci (2015), Vol. 6, pp. 1302-1308, AA43279 (Frederiksen, K. et al., Eur J Neurosci (2017), Vol. 46, pp. 1887-1896) and Lu AE98134 (von Schoubyea, N. L. et al., Neurosci Lett (2018), Vol. 662, pp. 29-35) employs the use of automated planar patch clamp techniques to study the effects of the chemical agent on the gating of sodium channels. The sodium channel isoforms of interest are stably expressed in Human Embryonic Kidney Cells and the currents that flow through those channels in response to a depolarizing voltage clamp step from −120 mV to 0 mV are measured in the presence of increasing concentrations of the chemical agents. The area under the sodium current trace which correlates to the magnitude of sodium flux through the cell membrane is used to quantify the effects on gating of the channels. Other parameters that are measured in the assay include the peak current, time constant of open state inactivation and the voltage dependence of steady state inactivation properties. The concentration responses are used to determine potency of each chemical agents effects on modulating the sodium channel isoform gating. Such techniques are known to those skilled in the art, and may be developed, using current technologies, into low or medium throughput assays for evaluating compounds for their ability to modulate sodium channel behaviour.
As disclosed above, typical assays for testing compounds of the disclosure are known, for example as disclosed in Crestey, F. et al., ACS Chem Neurosci (2015), Vol. 6, pp. 1302-1308, AA43279 (Frederiksen, K. et al., Eur J Neurosci (2017), Vol. 46, pp. 1887-1896) and Lu AE98134 (von Schoubyea, N. L. et al., Neurosci Lett (2018), Vol. 662, pp. 29-35) which employs the use of automated planar patch clamp techniques to study the effects of the chemical agent on the gating of sodium channels. The sodium channel isoforms of interest are stably expressed in Human Embryonic Kidney Cells and the currents that flow through those channels in response to a depolarizing voltage clamp step from −120 mV to 0 mV are measured in the presence of increasing concentrations of the chemical agents. The area under the sodium current trace which correlates to the magnitude of sodium flux through the cell membrane is used to quantify the effects on gating of the channels. Other parameters that are measured in the assay include the peak current, time constant of open state inactivation and the voltage dependence of steady state inactivation properties. The concentration responses are used to determine potency of each chemical agents effects on modulating the sodium channel isoform gating.

| Compound | EC50 | Empirical Emax |
| --- | --- | --- |
| CC1CN=C(c2c(-c3ccccc3)ccnc2N2CC[C@H](F)C2)N1 (stereo partly drawn) [Example 26, 2-((S)-3-fluoropyrrolidin-1-yl)-3-(5-methyl-4,5-dihydro-1H-imidazol-2-yl)-4-phenylpyridine] | 1 to 10 µM | + (+ indicates a value less than 2.0 μM) |
| Cc1[nH]c(-c2c(-c3ccccc3)ccnc2N2CC[C@H](F)C2)nc1Br [Example 27, (S)-3-(4-bromo-5-methyl-1H-imidazol-2-yl)-2-(3-fluoropyrrolidin-1-yl)-4-phenylpyridine] | 1 to 10 µM | ++ (++ indicates a value from 2.0 up to 5.0 μM) |
| c1ccc(-c2cnnc(N3CCCC3)c2-c2nc3ccccc3[nH]2)cc1 [Example 28, 2-(5-phenyl-3-(pyrrolidin-1-yl)pyridazin-4-yl)-1H-benzo[d]imidazole] | 10 to 50 µM | ++ (++ indicates a value from 2.0 up to 5.0 μM) |
| F[C@H]1CCN(c2nccc(-c3ccccc3)c2-c2nc3c([nH]2)CCCC3)C1 [Example 29, (S)-2-(2-(3-fluoropyrrolidin-1-yl)-4-phenylpyridin-3-yl)-4,5,6,7-tetrahydro-1H-benzo[d]imidazole] | < 1 µM | ++ (++ indicates a value from 2.0 up to 5.0 μM) |
| CC(C)c1ccc(-c2nnc(-c3c(-c4ccccc4)ccnc3N3CC[C@H](F)C3)o2)cc1 [Example 30, (S)-2-(2-(3-fluoropyrrolidin-1-yl)-4-phenylpyridin-3-yl)-5-(4-isopropylphenyl)-1,3,4-oxadiazole] | 1 to 10 µM | + (+ indicates a value less than 2.0 μM) |
| CC(C)(C)c1ccc2nc(-c3c(-c4ccccc4)ncnc3N3CCCC3)[nH]c2c1 [Example 31, 6-(tert-butyl)-2-(4-phenyl-6-(pyrrolidin-1-yl)pyrimidin-5-yl)-1H-benzo[d]imidazole] | 1 to 10 µM | +++ (+++ indicates a value from 5.0 up to 7.5 μM) |
| F[C@H]1CCN(c2nccc(-c3ccccc3)c2-c2nnn[nH]2)C1 [Example 32, (S)-2-(3-fluoropyrrolidin-1-yl)-4-phenyl-3-(1H-tetrazol-5-yl)pyridine] | < 1 µM | + (+ indicates a value less than 2.0 μM) |
| Cc1nc(-c2c(-c3ccccc3)ccnc2N2CC[C@H](F)C2)[nH]c1C(F)(F)F [Example 33, (S)-2-(3-fluoropyrrolidin-1-yl)-3-(4-methyl-5-(trifluoromethyl)-1H-imidazol-2-yl)-4-phenylpyridine] | 10 to 50 µM | ++ (++ indicates a value from 2.0 up to 5.0 μM) |
| CC(C)(C)OC(=O)N1CCc2nc(-c3c(-c4ccccc4)ccnc3N3CC[C@H](F)C3)[nH]c2C1 [Example 34, Tert-Butyl (S)-2-(2-(3-fluoropyrrolidin-1-yl)-4-phenylpyridin-3-yl)-3,4,6,7-tetrahydro-5H-imidazo[4,5-c]pyridine-5-carboxylate] | 1 to 10 µM | +++ (+++ indicates a value from 5.0 up to 7.5 μM) |
| F[C@H]1CCN(c2nccc(-c3ccccc3)c2-c2nc3c([nH]2)CNCC3)C1 [Example 35, (S)-2-(2-(3-fluoropyrrolidin-1-yl)-4-phenylpyridin-3-yl)-4,5,6,7-tetrahydro-3H-imidazo[4,5-c]pyridine 2,2,2-trifluoroacetic Acid Salt (Free Acid)] | ≥ 50 µM | + (+ indicates a value less than 2.0 μM) |
| CN1CCc2nc(-c3c(-c4ccccc4)ccnc3N3CC[C@H](F)C3)[nH]c2C1 [Example 36, (S)-2-(2-(3-fluoropyrrolidin-1-yl)-4-phenylpyridin-3-yl)-5-methyl-4,5,6,7-tetrahydro-3H-imidazo[4,5-c]pyridine] | 10 to 50 µM | + (+ indicates a value less than 2.0 μM) |
| CC(=O)N1CCc2nc(-c3c(-c4ccccc4)ccnc3N3CC[C@H](F)C3)[nH]c2C1 [Example 37, (S)-1-(2-(2-(3-fluoropyrrolidin-1-yl)-4-phenylpyridin-3-yl)-3,4,6,7-tetrahydro-5H-imidazo[4,5-c]pyridin-5-yl)ethan-1-one] | 10 to 50 µM |  |
| CC(C)N1CCc2nc(-c3c(-c4ccccc4)ccnc3N3CC[C@H](F)C3)[nH]c2C1 [Example 38, (S)-2-(2-(3-fluoropyrrolidin-1-yl)-4-phenylpyridin-3-yl)-5-isopropyl-4,5,6,7-tetrahydro-3H-imidazo[4,5-c]pyridine] | ≥ 50 µM | + (+ indicates a value less than 2.0 μM) |
| F[C@H]1CCN(c2nccc(-c3ccccc3)c2-c2nc3c([nH]2)CN(C2COC2)CC3)C1 [Example 39, (S)-2-(2-(3-fluoropyrrolidin-1-yl)-4-phenylpyridin-3-yl)-5-(oxetan-3-yl)-4,5,6,7-tetrahydro-3H-imidazo[4,5-c]pyridine] | 10 to 50 µM | ++ (++ indicates a value from 2.0 up to 5.0 μM) |
| CCOC(=O)N1CCc2nc(-c3c(-c4ccccc4)ccnc3N3CC[C@H](F)C3)n(C(=O)OCC)c2C1 [Example 40, diethyl (S)-2-(2-(3-fluoropyrrolidin-1-yl)-4-phenylpyridin-3-yl)-6,7-dihydro-3H-imidazo[4,5-c]pyridine-3,5(4H)-dicarboxylate] | 1 to 10 µM | +++ (+++ indicates a value from 5.0 up to 7.5 μM) |
| CC(C)C(=O)N1CCc2nc(-c3c(-c4ccccc4)ccnc3N3CC[C@H](F)C3)[nH]c2C1 [Example 41, (S)-1-(2-(2-(3-fluoropyrrolidin-1-yl)-4-phenylpyridin-3-yl)-3,4,6,7-tetrahydro-5H-imidazo[4,5-c]pyridin-5-yl)-2-methylpropan-1-one] | ≥ 50 µM | + (+ indicates a value less than 2.0 μM) |
| F[C@H]1CCN(c2nccc(-c3ccccc3)c2-c2nc3c([nH]2)CN(Cc2ccccc2)CC3)C1 [Example 42, (S)-5-benzyl-2-(2-(3-fluoropyrrolidin-1-yl)-4-phenylpyridin-3-yl)-4,5,6,7-tetrahydro-3H-imidazo[4,5-c]pyridine] | < 1 µM | ++ (++ indicates a value from 2.0 up to 5.0 μM) |
| FC1(F)CCN(c2nccc(-c3ccccc3)c2-c2nc3c([nH]2)COCC3)C1 [Example 43, 2-(2-(3,3-difluoropyrrolidin-1-yl)-4-phenylpyridin-3-yl)-3,4,6,7-tetrahydropyrano[3,4-d]imidazole] | < 1 µM | +++ (+++ indicates a value from 5.0 up to 7.5 μM) |
| c1ccc(-c2ccnc(N3CCCC3)c2-c2nc3c([nH]2)COCC3)cc1 [Example 44, 2-(4-phenyl-2-(pyrrolidin-1-yl)pyridin-3-yl)-3,4,6,7-tetrahydropyrano[3,4-d]imidazole] | 1 to 10 µM | +++ (+++ indicates a value from 5.0 up to 7.5 μM) |
| FC1(F)C2CN(c3nccc(-c4ccccc4)c3-c3nc4c([nH]3)COCC4)CC21 (centres unmarked) [Example 45, 2-(2-(6,6-difluoro-3-azabicyclo[3.1.0]hexan-3-yl)-4-phenylpyridin-3-yl)-3,4,6,7-tetrahydropyrano[3,4-d]imidazole] | < 1 µM | +++ (+++ indicates a value from 5.0 up to 7.5 μM) |
| N#CC1CCN(c2nccc(-c3ccccc3)c2-c2nc3c([nH]2)COCC3)C1 (centres unmarked) [Example 46] | 1 to 10 µM | +++ (+++ indicates a value from 5.0 up to 7.5 μM) |
| FC(F)(F)C1CCN(c2nccc(-c3ccccc3)c2-c2nc3c([nH]2)COCC3)C1 (centres unmarked) [Example 47, 2-(4-phenyl-2-(3-(trifluoromethyl)pyrrolidin-1-yl)pyridin-3-yl)-3,4,6,7-tetrahydropyrano[3,4-d]imidazole] | 1 to 10 µM | +++ (+++ indicates a value from 5.0 up to 7.5 μM) |
| F[C@@H]1CN(c2nccc(-c3ccccc3)c2-c2nc3c([nH]2)COCC3)C[C@@H]1F [Example 48, 2-(2-((3S,4R)-3,4-difluoropyrrolidin-1-yl)-4-phenylpyridin-3-yl)-3,4,6,7-tetrahydropyrano[3,4-d]imidazole] | 1 to 10 µM | +++ (+++ indicates a value from 5.0 up to 7.5 μM) |
| FC1(F)CCCN(c2nccc(-c3ccccc3)c2-c2nc3c([nH]2)COCC3)C1 [Example 49, 2-(2-(3,3-difluoropiperidin-1-yl)-4-phenylpyridin-3-yl)-3,4,6,7-tetrahydropyrano[3,4-d]imidazole] | 10 to 50 µM | ++ (++ indicates a value from 2.0 up to 5.0 μM) |
